Experimental findings from US9655887B2, “Pharmaceutical composition and the use thereof, and application regime of said pharmaceutical composition for on-demand contraception” (BAYER PHARMA AKTIENGESELLSCHAFT, priority 2013, dated 2017) are described below.

Sequence of EP2 subtype of the human PGE2 receptor (hEP2 receptor) (P43116 whole entry): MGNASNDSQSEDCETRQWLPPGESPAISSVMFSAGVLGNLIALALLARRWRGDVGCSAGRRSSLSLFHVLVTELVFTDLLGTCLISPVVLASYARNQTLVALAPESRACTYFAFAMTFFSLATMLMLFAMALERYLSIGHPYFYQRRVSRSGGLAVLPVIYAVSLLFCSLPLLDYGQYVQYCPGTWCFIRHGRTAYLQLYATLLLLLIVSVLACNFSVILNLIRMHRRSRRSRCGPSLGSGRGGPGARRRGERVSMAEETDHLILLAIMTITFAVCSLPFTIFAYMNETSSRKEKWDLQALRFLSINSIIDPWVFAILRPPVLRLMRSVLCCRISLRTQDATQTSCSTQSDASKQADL

The test addresses EP2 subtype of the human PGE2 receptor (hEP2 receptor) (Homo sapiens, UniProt P43116). The experiment in a line: cAMP antagonism test, human prostaglandin E2 (subtype EP2) receptor signal. In kind it is cell-based. The gist of the method:
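Cells (625000 cells/ml, mixed with cAMP-d2) were preincubated 20 min at RT with compound ([…]). They were then stimulated 60 min at RT with a 3× PGE2 solution (1.5 nM) in PBS-IBMX and lysed for 20 min. cAMP was read by HTRF as the 665/620 nm ratio ×10000, with antagonism seen as a rise in FRET signal.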
As to `Cc1ccc(C(=O)N2CC(Cn3cc4c(C)c(C(=O)NCCOCC5CC5)ccc4n3)C2)cc1` [Example E104, N-[2-(cyclopropylmethoxy)ethyl]-4-methyl-2-{[1-(4-methylbenzoyl)azetidin-3-yl]-methyl}-2H-indazole-5-carboxamide], the half-maximal inhibitory concentration (IC50) was greater than 0.05 µM.
The value for `Cc1c(C(=O)NCCOC(F)(F)F)ccc2nn(CC3CN(C(=O)c4ccc(Cl)cc4)C3)cc12` [Example E105, 2-{[1-(4-chlorobenzoyl)azetidin-3-yl]methyl}-4-methyl-N-[2-(trifluoromethoxy)ethyl]-2H-indazole-5-carboxamide] was greater than 0.05 µM; that for `Cc1c(C(=O)NCCOCC2CC2)ccc2nn(CC3CN(C(=O)c4ccc(-c5ccc(F)cc5)cc4)C3)cc12` [Example E107, N-[2-(cyclopropylmethoxy)ethyl]-2-({1-[(4′-fluorobiphenyl-4-yl)carbonyl]azetidin-3-yl}methyl)-4-methyl-2H-indazole-5-carboxamide] was greater than 0.05 µM; that for `COCCNC(=O)c1ccc2nn(CC3CN(C(=O)c4ccc(-c5ccc(F)cc5)cc4)C3)cc2c1C` [Example E108, 2-({1-[(4′-fluorobiphenyl-4-yl)carbonyl]azetidin-3-yl}methyl)-N-(2-methoxyethyl)-4-methyl-2H-indazole-5-carboxamide] was greater than 0.05 µM.
The value for `COCCNC(=O)c1ccc2nn(CC3CN(C(=O)c4ccc(Oc5ccc(F)cc5)cc4)C3)cc2c1C` [Example E109, 2-({1-[4-(4-fluorophenoxy)benzoyl]azetidin-3-yl}methyl)-N-(2-methoxyethyl)-4-methyl-2H-indazole-5-carboxamide] was greater than 0.05 µM; that for `Cc1c(C(=O)NCCOCC(F)(F)F)ccc2nn(CC3CN(C(=O)c4ccc(Cl)cc4)C3)cc12` [Example E112, 2-{[1-(4-chlorobenzoyl)azetidin-3-yl]methyl}-4-methyl-N-[2-(2,2,2-trifluoroethoxy)-ethyl]-2H-indazole-5-carboxamide] was greater than 0.05 µM.
Then `Cc1c(C(=O)NCCOCC(F)(F)F)ccc2nn(CC3CN(C(=O)c4ccc(Oc5ccc(C(F)(F)F)cc5)cc4)C3)cc12` [Example E113, 4-methyl-N-[2-(2,2,2-trifluoroethoxy)ethyl]-2-[(1-{4-[4-(trifluoromethyl)phenoxy]-benzoyl}azetidin-3-yl)methyl]-2H-indazole-5-carboxamide], with greater than 0.05 µM; and `Cc1c(C(=O)NCC(F)(F)F)ccc2nn(CC3CN(C(=O)c4ccc(Oc5ccc(C(F)(F)F)cc5)cc4)C3)cc12` [Example E114, 4-methyl-N-(2,2,2-trifluoroethyl)-2-[(1-{4-[4-(trifluoromethyl)phenoxy]benzoyl}-azetidin-3-yl)methyl]-2H-indazole-5-carboxamide], with greater than 0.05 µM.
Regarding `Cc1c(C(=O)NCC(F)(F)F)ccc2nn(CC3CN(C(=O)c4ccc(Oc5ccc(Cl)cc5)cc4)C3)cc12` [Example E115, 2-({1-[4-(4-chlorophenoxy)benzoyl]azetidin-3-yl}methyl)-4-methyl-N-(2,2,2-trifluoro-ethyl)-2H-indazole-5-carboxamide], the IC50 is greater than 0.05 µM.
Then `COCCNC(=O)c1ccc2nn(CC3CN(C(=O)c4ccc(Oc5ccc(Cl)cc5)cc4)C3)cc2c1C` [Example E116, 2-({1-[4-(4-chlorophenoxy)benzoyl]azetidin-3-yl}methyl)-N-(2-methoxyethyl)-4-methyl-2H-indazole-5-carboxamide], with greater than 0.05 µM.
In turn, `COCCNC(=O)c1ccc2nn(CC3CN(C(=O)c4ccc(Oc5ccc(C(F)(F)F)cn5)cc4)C3)cc2c1C` [Example E117, N-(2-methoxyethyl)-4-methyl-2-{[1-(4-{[5-(trifluoromethyl)pyridin-2-yl]oxy}benzoyl)-azetidin-3-yl]methyl}-2H-indazole-5-carboxamide] came in with an IC50 greater than 0.05 µM.
Take `Cc1c(C(=O)NCC(F)(F)F)ccc2nn(CC3CCN(C(=O)c4ccc(SC(F)(F)F)cc4)CC3)cc12` [Example E125, 4-methyl-N-(2,2,2-trifluoroethyl)-2-[(1-{4-[(trifluoromethyl)sulphanyl]benzoyl}-piperidin-4-yl)methyl]-2H-indazole-5-carboxamide]: the IC50 is greater than 0.05 µM.
Then `Cc1c(C(=O)NCC(F)(F)F)ccc2nn(CC3CCN(C(=O)c4ccc(Oc5ccc(C(F)(F)F)cn5)cc4)CC3)cc12` [Example E127, 4-methyl-N-(2,2,2-trifluoroethyl)-2-{[1-(4-{[5-(trifluoromethyl)pyridin-2-yl]oxy}-benzoyl)piperidin-4-yl]methyl}-2H-indazole-5-carboxamide], with greater than 0.05 µM; and `Cc1c(C(=O)NCC(F)(F)F)ccc2nn(CC3CCN(C(=O)c4ccc(Oc5ccc(C(F)(F)F)nc5)cc4)CC3)cc12` [Example E128, 4-methyl-N-(2,2,2-trifluoroethyl)-2-{[1-(4-{[6-(trifluoromethyl)pyridin-3-yl]oxy}-benzoyl)piperidin-4-yl]methyl}-2H-indazole-5-carboxamide], with greater than 0.05 µM.
With `Cc1c(C(=O)NCC(F)(F)F)ccc2nn(CC3CCN(C(=O)c4ccc(Oc5cccc(F)c5)cc4)CC3)cc12` [Example E131, 2-({1-[4-(3-fluorophenoxy)benzoyl]piperidin-4-yl}methyl)-4-methyl-N-(2,2,2-trifluoro-ethyl)-2H-indazole-5-carboxamide], the IC50 was greater than 0.05 µM.
Then `Cc1c(C(=O)NCC(F)(F)F)ccc2nn(CC3CCN(C(=O)c4ccc(Oc5cccc(C(F)(F)F)c5)cc4)CC3)cc12` [Example E132, 4-methyl-N-(2,2,2-trifluoroethyl)-2-[(1-{4-[3-(trifluoromethyl)phenoxy]benzoyl}-piperidin-4-yl)methyl]-2H-indazole-5-carboxamide], with greater than 0.05 µM; and `Cc1c(C(=O)NCC(F)(F)F)ccc2nn(CC3CCN(C(=O)c4ccc(Oc5ccc(F)c(F)c5)cc4)CC3)cc12` [Example E137, 2-({1-[4-(3,4-difluorophenoxy)benzoyl]piperidin-4-yl}methyl)-4-methyl-N-(2,2,2-trifluoroethyl)-2H-indazole-5-carboxamide], with greater than 0.05 µM.
The value for `Cc1c(C(=O)NCC(F)(F)F)ccc2nn(CC3CCN(C(=O)c4ccc(-c5ccc(C(F)(F)F)cc5)cc4)CC3)cc12` [Example E138, 4-methyl-N-(2,2,2-trifluoroethyl)-2-[(1-{[4′-(trifluoromethyl)biphenyl-4-yl]carbonyl}-piperidin-4-yl)methyl]-2H-indazole-5-carboxamide] was greater than 0.05 µM; that for `COc1ccc(-c2ccc(C(=O)N3CCC(Cn4cc5c(C)c(C(=O)NCC(F)(F)F)ccc5n4)CC3)cc2)c(C)c1` [Example E141, 2-({1-[(4′-methoxy-2′-methylbiphenyl-4-yl)carbonyl]piperidin-4-yl}methyl)-4-methyl-N-(2,2,2-trifluoroethyl)-2H-indazole-5-carboxamide] was greater than 0.05 µM; that for `COc1cc(F)ccc1-c1ccc(C(=O)N2CCC(Cn3cc4c(C)c(C(=O)NCC(F)(F)F)ccc4n3)CC2)cc1` [Example E143, 2-({1-[(4′-fluoro-2′-methoxybiphenyl-4-yl)carbonyl]piperidin-4-yl}methyl)-4-methyl-N-(2,2,2-trifluoroethyl)-2H-indazole-5-carboxamide] was greater than 0.05 µM.
The value for `COCCNC(=O)c1ccc2nn(CC3CCN(C(=O)c4ccc(Oc5ccc(C#N)cc5)cc4)CC3)cc2c1C` [Example E153, 2-({1-[4-(4-cyanophenoxy)benzoyl]piperidin-4-yl}methyl)-N-(2-methoxyethyl)-4-methyl-2H-indazole-5-carboxamide] was greater than 0.05 µM; that for `COCCNC(=O)c1ccc2nn(CC3CCN(C(=O)c4ccc(Br)c(C)c4)CC3)cc2c1C` [Example E154, 2-{[1-(4-bromo-3-methylbenzoyl)piperidin-4-yl]methyl}-N-(2-methoxyethyl)-4-methyl-2H-indazole-5-carboxamide] was greater than 0.05 µM; that for `COCCNC(=O)c1ccc2nn(CC3CCN(C(=O)c4ccc(C(C)(C)C)cc4)CC3)cc2c1C` [Example E155, 2-{[1-(4-tert-butylbenzoyl)piperidin-4-yl]methyl}-N-(2-methoxyethyl)-4-methyl-2H-indazole-5-carboxamide] was greater than 0.05 µM.
In turn, `COCCNC(=O)c1ccc2nn(CC3CCN(C(=O)c4ccc(C5CCCCC5)cc4)CC3)cc2c1C` [Example E157, 2-{[1-(4-cyclohexylbenzoyl)piperidin-4-yl]methyl}-N-(2-methoxyethyl)-4-methyl-2H-indazole-5-carboxamide] showed a half-maximal inhibitory concentration (IC50) greater than 0.05 µM.
Then `COCCNC(=O)c1ccc2nn(CC3CCN(C(=O)c4ccc(Oc5cccnc5)cc4)CC3)cc2c1C` [Example E160, N-(2-methoxyethyl)-4-methyl-2-({1-[4-(pyridin-3-yloxy)benzoyl]piperidin-4-yl}methyl)-2H-indazole-5-carboxamide], with greater than 0.05 µM; and `COCCNC(=O)c1ccc2nn(CC3CCN(C(=O)c4ccc(Oc5ccccn5)cc4)CC3)cc2c1C` [Example E162, N-(2-methoxyethyl)-4-methyl-2-({1-[4-(pyridin-2-yloxy)benzoyl]piperidin-4-yl}methyl)-2H-indazole-5-carboxamide], with greater than 0.05 µM; and `COCCNC(=O)c1ccc2nn(CC3CCN(C(=O)c4ccc(Oc5nccc(C(F)(F)F)n5)cc4)CC3)cc2c1C` [Example E163, N-(2-methoxyethyl)-4-methyl-2-{[1-(4-{[4-(trifluoromethyl)pyrimidin-2-yl]oxy}-benzoyl)piperidin-4-yl]methyl}-2H-indazole-5-carboxamide], with greater than 0.05 µM.
Regarding `COCCNC(=O)c1ccc2nn(CC3CCN(C(=O)c4ccc(Oc5ccc(C(F)(F)F)nc5)cc4)CC3)cc2c1C` [Example E164, N-(2-methoxyethyl)-4-methyl-2-{[1-(4-{[6-(trifluoromethyl)pyridin-3-yl]oxy}benzoyl)-piperidin-4-yl]methyl}-2H-indazole-5-carboxamide], the IC50 is greater than 0.05 µM.

Broadly, the IC50 is the concentration at which inhibition is half-maximal. A high value points to weaker potency.
